Values joined by “and” are separate entries in the source; they are usually repeats but may differ in a detail not shown here. Equal entries are not always repeated. Where two headings read alike, the source gives them in different places.
Experiments:
DabiOBP5 = molecular target: T1, DabiOBP5 (Dioryctria abietella, UniProt A0A8E6HS34); test: Competitive fluorescence binding assay with 1-NPN probe, recombinant DabiOBP5; settings: for Ki: read-out: OBP5 Ki (dissociation constant), competitive displacement of 1-NPN, three replicates, mean ± SE
T1 sequence (A0A8E6HS34 19-139): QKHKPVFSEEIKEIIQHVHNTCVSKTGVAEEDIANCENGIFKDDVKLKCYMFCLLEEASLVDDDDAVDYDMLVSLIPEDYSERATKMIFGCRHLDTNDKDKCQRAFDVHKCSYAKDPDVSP
From the text: In the binding assays, we selected 100 compounds derived from host/non-host plants and man-made insecticides widely used for the control of lepidopteran pests, representing 88 general odorants (21 esters, 21 alcohols, 14 aldehydes, 13 alkenes, seven ketones, 11 alkanes and one acid) and 12 insecticides. These compounds and N-phenyl-1-naphthylamine (1-NPN) were purchased from Aladdin and Sigma-Aldrich, with the highest available purity. […] The concentrations of the work solution for each ligand and 1-NPN were set at 1 mM.
In order to measure the binding properties of the DabiOBPs to the 100 ligands, competitive binding assays were performed on a RF5301PC fluorescence spectrophotometer (Shimadzu, Japan). The concentrations of DabiOBPs and the fluorescent probe 1-NPN were set at 2 μM. […] Accordingly, binding constants (K1-NPN) of the DabiOBPs and 1-NPN were calculated using GraphPad Prism 7 (GraphPad Software Inc., San Diego, CA). […] For the ligands replacing over a half of 1-NPN fluorescence (50%) at 20 μM, three replicates were performed. The excitation wavelength was set at 337 nm and the emission peaks were recorded at around 400 nm.

DabiOBP14 = type: binding, Dioryctria abietella; settings: for OBP14 F.D. (%) fluorescence displacement percent: ligand at 20 μM, DabiOBP14/1-NPN each 2 μM, Tris-HCl pH 7.4, NB = no binding; for Ki: competitive displacement of 1-NPN, three replicates, mean ± SE, read-out: OBP14 Ki (dissociation constant)
Procedure: In the binding assays, we selected 100 compounds derived from host/non-host plants and man-made insecticides widely used for the control of lepidopteran pests, representing 88 general odorants (21 esters, 21 alcohols, 14 aldehydes, 13 alkenes, seven ketones, 11 alkanes and one acid) and 12 insecticides. These compounds and N-phenyl-1-naphthylamine (1-NPN) were purchased from Aladdin and Sigma-Aldrich, with the highest available purity. They were first diluted into 100 mM, using methanol (HPLC purity grade, ≥99.9%) as a stock solution. The concentrations of the work solution for each ligand and 1-NPN were set at 1 mM.
In order to measure the binding properties of the DabiOBPs to the 100 ligands, competitive binding assays were performed on a RF5301PC fluorescence spectrophotometer (Shimadzu, Japan). The concentrations of DabiOBPs and the fluorescent probe 1-NPN were set at 2 μM. The binding of DabiOBPs to 1-NPN in 20 mM Tris-HCl buffer (pH 7.4) was measured by adding final concentrations of 2–16 μM 1-NPN. Accordingly, binding constants (K1-NPN) of the DabiOBPs and 1-NPN were calculated using GraphPad Prism 7 (GraphPad Software Inc., San Diego, CA). The binding of the DabiOBPs to various ligands was conducted by adding different concentrations of ligands (2, 4, 6, 8, 12, 16 and 20 μM) into the DabiOBP5/1-NPN (each 2 μM) or DabiOBP14/1-NPN (each 2 μM) mixtures. For the ligands replacing over a half of 1-NPN fluorescence (50%) at 20 μM, three replicates were performed. The excitation wavelength was set at 337 nm and the emission peaks were recorded at around 400 nm. The dissociation constants (Ki) of the tested ligands to DabiOBPs were computed, using the equation: Ki = [IC50]/(1 + [1-NPN]/K1-NPN), where [1-NPN] was the free concentration of 1-NPN and IC50 was the concentration of ligands replacing 50% of 1-NPN fluorescence.

[1] = ligand at 20 μM, DabiOBP5/1-NPN each 2 μM, Tris-HCl pH 7.4, NB = no binding
[2] = ligand at 20 μM, DabiOBP5/1-NPN each 2 μM, Tris-HCl pH 7.4, NB = no binding, read-out: OBP5 F.D. (%) fluorescence displacement percent
[3] = pH 7.4, read-out: OBP5 F.D. (%) fluorescence displacement percent

SMILES | OBP14 F.D. (%) fluorescence displacement percent (DabiOBP14) [%] | inhibition at 20 µM (DabiOBP5; [2]) [%] | further results
COC(C)=O [Methyl acetate] | 27.21 |  | OBP5 F.D. (%) fluorescence displacement percent (DabiOBP5; [1]): 27.62%
CCCCCC(C)=O [2-Heptanone] | 33.53 | 36.5 | 
CCCC(=O)OCC [Ethyl butyrate] | 31.72 | 32 | 
COc1cc(C=O)cc(OC)c1O [Syringaldehyde] | 34.32 | 38.5 | 
CC1=CCC2CC1C2(C)C (stereo not drawn) [α-Pinene] | 29.24 | 25.1 | 
CCCCCC(C)O (stereo not shown) [2-Heptanol] | 24.86 | 13.9 | 
CCCCCCCCCO [1-Nonanol] | 29.98 | 39.6 | 
CCC(C)CO (stereo not shown) [2-Methyl-1-butanol] | 27.78 | 36 | 
CC1=CCC(C(C)C)=CC1 [γ-Terpinene] | 24.46 | 28.2 | 
CC1(C)[C@H](C(=O)O[C@H](C#N)c2cccc(Oc3ccccc3)c2)[C@@H]1C=C(Br)Br [Deltamethrin] | 38.21 | 28.5 | 
CCOP(=S)(OCC)O/N=C(\C#N)c1ccccc1 [Phoxim] | 89.62 |  | inhibition at 20 µM (DabiOBP5; [3]): 82%; Ki (DabiOBP5): < 13 µM and 2.89 µM; Ki (DabiOBP14; listed as phoxim): < 13 µM; Ki (DabiOBP14): 2.38 ± 0.28 µM
CCCCC(C)=O [2-Hexanone] | 27.57 | 43.1 | 
CC/C=C\CCOC(C)=O [Z3-Hexenyl acetate] | 31.25 |  | OBP5 F.D. (%) fluorescence displacement percent (DabiOBP5; [1]): 27.72%
CC1=CC[C@H](C(C)C)C=C1 [α-Phellandrene] | 36.07 | 37.4 | 
O=C(NC(=O)c1ccccc1Cl)Nc1ccc(Cl)cc1 [Chlorbenzuron] | 47.43 |  | OBP5 F.D. (%) fluorescence displacement percent (DabiOBP5; [1]): 39.11%
CC(C)=CCC/C(C)=C/CC/C(C)=C/CO [Farnesol] | 36.20 | 36.3 | 
CCOCn1c(-c2ccc(Cl)cc2)c(C#N)c(Br)c1C(F)(F)F [Chlorfenapyr] | 60.84 |  | inhibition at 20 µM (DabiOBP5; [3]): 62%; Ki (DabiOBP5): 8.16 ± 0.55 µM; Ki (DabiOBP5; listed as chlorfenapyr): < 13 µM; Ki (DabiOBP14; listed as chlorfenapyr): < 13 µM; Ki (DabiOBP14): 8.41 ± 0.42 µM
CCCCCCCCCCCCCCCCCCC [Nonadecane] | 15.30 | 27.7 | 
CCCCCCC [Heptane] | 22.91 | 31.4 | 
CCCCCC(=O)OCC [Ethyl hexanoate] | 29.43 | 24.2 | 
CCCCCCCO [1-Heptanol] | 39.10 | 39.3 | 
O=CCc1ccccc1 [Phenylacetaldehyde] | 33.05 | 29.1 | 
CCOC(=O)c1ccccc1 [Ethyl benzoate] | 30.02 | 29.4 | 
N#Cc1nn(-c2c(Cl)cc(C(F)(F)F)cc2Cl)c(N)c1[S+]([O-])C(F)(F)F (stereo not shown) [Fipronil] | 29.70 | 23.7 | 
CCCCCCCCC=O [Nonanal] | 23.55 | 31.5 | 
CCC/C=C\C=O [Z2-Hexenal] | 33.09 |  | OBP5 F.D. (%) fluorescence displacement percent (DabiOBP5; [1]): 39.42%
CCCCCCCC=O [Octanal] | 34.48 | 35.6 | 
CCCCCCO [1-Hexanol] | 40.27 | 38.9 | 
CCCOC(C)=O [Propyl acetate] | 25.46 | 31.4 | 
CC(C)=CCO [3-Methyl-2-buten-1-ol] | 34.58 | 37 | 

Source: paper PMC9781003, “Two Antenna-Enriched Odorant Binding Proteins in Dioryctria abietella Tuned to General Odorants and Insecticides” (Insects, 2022)
